Measured values from patent publication US10696691B2, “BACE1 inhibitors” (Hoffmann-La Roche Inc., priority 2015, dated 2020).

Key:
Aβ40 = assay: Lowering of Aβ40 in brain of wild-type mice; assay type: in vivo; conditions: Mus musculus, po; female C57Bl/6J mice, 30 mg/kg per os, 4 h; brain Aβ40 as percentage of the vehicle group; read-out: Aβ40 (wt mice, brain)
Procedure: Lowering of Aβ40 in Brain of Wild-Type Mice:
Animals and Housing Conditions.
Animals were maintained in a 12/12 h light/dark cycle, with lights starting at 6 a.m., and experiments were conducted during the light phase, Animal housing and experimental procedures were in line with ethical and legal guidelines and were authorized by local veterinary authorities.
Female C57Bl/6J mice were treated with a dose of 30 mg/kg of the compounds, 3-4 animals per treatment group. The test compound was dissolved in 5% EtOH, 10% Solutol, and was applied per os at 10 mL/kg. After 4 h, the animals were sacrificed and brain and plasma were collected. The brain was cut into halves and immediately frozen on dry ice. Brain was used for measurement of Aβ40 and plasma was used for determination of compound exposure. […] Brain tissue was homogenized in 2% DEA buffer in a Roche MagnaLyser (20″, 4000 rpm) and subsequently centrifuged for 1 h at 100000 g. DEA was reduced to 0.2% in 50 mM NaCl and one-half of the DEA lysate was passed over an Oasis Solid phase extraction plate (Waters; cat. no. 186000679), which had been activated with MeOH and equilibrated in dH2O (1 mL each). After washes in 10% and 30% MeOH (1 mL each), the Aβ-peptides were eluted in 0.8 mL of 2% NH4OH in 90% MeOH. The eluate was dried over a N2 flow, and the dried sample was reconstituted in 30 μL of AlphaLISA assay buffer. Aβ40 was determined by an AlphaLISA assay (Perkin-Elmer). In a white 96-well, half area microplate (Perkin-Elmer cat. no. 6005561), 20 μL of the reconstituted sample were mixed with 5 μL of biotinylated BAP-24 (specific for C-terminus of Aβ40) (Brockhaus, M.; Onmberg, J.; Rohrig, S.; Loetscher, H.; Wittenburg, N.; Baumeister, R.; Jacobsen, H.; Haass, C. Caspasemediated cleavage is not required for the activity of presenilins in amyloidogenesis and NOTCH signaling. NeuroReport 1998, 9, 1481-1486.) stock=4.4 mg/mL, f.c.5.5 μg/mL), and 5 μL 252Q6 acceptor beads (252Q6 antibody, Invitrogen AMB0062) had been previously conjugated with AlphaLISA Acceptor beads (Perkin-Elmer cat. no. 6772002); final dilution 1:500). The mix was incubated for 1 h at RT in the dark. Then 20 μL of Streptavin-coated Donor Beads (Perkin-Elmer cat. no. 6760002, final dilution 1:125) were added and this final mix was incubated in the dark for another 30 min at RT before RFU was measured in an AlphaScreen Reader (Perkin-Elmer Envision 2104). The value obtained for A40 in the treated animals was related to the value in the vehicle group and is given in %. Alternatively a commercial ELISA was used for Aβ40 determination (Wako ELISA: (“Human/Rat 3 Amyloid (40) ELISA kit Wako II”; cat nr. 294-64701) following the manufacture's instruction. Also here the Aβ-lowering efficacy was calculated as percentage of the vehicle group.

BACE1 = molecular target: T1, BACE1 (Homo sapiens, UniProt P56817); assay: Cellular Aβ-lowering assay (Abeta 40 AlphaLISA, HEK293 APP cells); assay type: cell-based; conditions: 18-20 hrs incubation, Aβ 40 in culture supernatants, read-out: BACE1 cell act. Aβ40 IC50
T1 construct: endogenous in cells; host or cells: HEK293 APP cells
T1 sequence (P56817 46-501): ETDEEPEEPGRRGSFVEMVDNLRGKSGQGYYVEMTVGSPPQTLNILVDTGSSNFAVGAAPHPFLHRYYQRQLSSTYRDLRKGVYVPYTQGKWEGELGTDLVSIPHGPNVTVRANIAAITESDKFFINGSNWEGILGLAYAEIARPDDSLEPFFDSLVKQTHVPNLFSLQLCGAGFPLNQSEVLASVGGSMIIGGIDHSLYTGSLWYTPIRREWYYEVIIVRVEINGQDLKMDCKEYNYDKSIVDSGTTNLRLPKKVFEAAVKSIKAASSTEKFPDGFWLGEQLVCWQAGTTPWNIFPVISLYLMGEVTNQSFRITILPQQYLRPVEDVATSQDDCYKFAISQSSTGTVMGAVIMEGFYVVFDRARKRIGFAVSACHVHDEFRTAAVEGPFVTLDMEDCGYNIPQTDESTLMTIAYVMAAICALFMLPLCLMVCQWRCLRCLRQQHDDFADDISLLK
Procedure: Cellular Aβ-Lowering Assay:
The Abeta 40 AiphaLISA Assay can be used. The HEK293 APP cells were seeded in 96 well Microtiter plates in cell culture medium (Iscove's, plus 10% (v/v) fetal bovine serum, penicillin/streptomycin) to about 80% confluency and the compounds were added at a 3× concentration in ⅓ volume of culture medium (final DMSO concentration was kept at 1% v/v). After 18-20 hrs incubation at 37° C. and 5% CO2 in a humidified incubator, the culture supernatants were harvested for the determination of Aβ 40 concentrations using Perkin-Elmer Human Amyloid beta 1-40 (high specificity) Kit (Cat # AL275C).
In a Perkin-Elmer White Optiplate-384 (Cat #6007290), 2 ul culture supernatants were combined with 2 μl of a 10× AlphaLISA Anti-hABAcceptor beads+Biotinylated Antibody Anti-AD 1-40 Mix (50 μg/mL/5 nM). After 1 hour room temperature incubation, 16 μl of a 1.25× preparation of Streptavidin (SA) Donor beads (25 μg/mL) were added and incubated for 30 minutes in the Dark. Light Emission at 615 nm was then recorded using EnVision-Alpha Reader. Levels of Aβ 40 in the culture supernatants were calculated as percentage of maximum signal (cells treated with 1% DMSO without inhibitor). The IC50 values were calculated using the Excel XLfit software.

Compound | IC50 (BACE1) | response vs control in vivo at 30 mg/kg (Aβ40)
Cc1cc(C#N)cnc1C(=O)Nc1ccc(F)c([C@@]2(C)N=C(N)C(C)(C)[S@@]3(=O)=NCC[C@@H]23)c1 [Example 1AB, N-(3-((3aS,4R,8R)-6-amino-4,7,7-trimethyl-8-oxido-3,3a,4,7-tetrahydro-2H-isothiazolo[1,5-a][1,4]thiazin-4-yl)-4-fluorophenyl)-5-cyano-3-methylpicolinamide] | 0.09 nM | 14%
Cc1cc(C#N)cnc1C(=O)Nc1ccc(F)c([C@@]2(C)N=C(N)C(C)(C)[S@]3(=O)=NCC[C@H]23)c1 [Example 1BA, N-(3-((3aR,4R,8S)-6-amino-4,7,7-trimethyl-8-oxido-3,3a,4,7-tetrahydro-2H-isothiazolo[1,5-a][1,4]thiazin-4-yl)-4-fluorophenyl)-5-cyano-3-methylpicolinamide] | 3.6 nM | 73%
CC1(C)C(N)=N[C@](C)(c2cc(NC(=O)c3ncc(C#N)cc3Cl)ccc2F)[C@@H]2CCN=[S@@]21=O [Example 2AB, N-(3-((3aS,4R,8R)-6-amino-4,7,7-trimethyl-8-oxido-3,3a,4,7-tetrahydro-2H-isothiazolo[1,5-a][1,4]thiazin-4-yl)-4-fluorophenyl)-3-chloro-5-cyanopicolinamide] | 1 nM | 80%
CC1(C)C(N)=N[C@](C)(c2cc(NC(=O)c3ncc(Cl)cc3Cl)ccc2F)[C@@H]2CCN=[S@@]21=O [Example 3AB, N-(3-((3aS,4R,8R)-6-amino-4,7,7-trimethyl-8-oxido-3,3a,4,7-tetrahydro-2H-isothiazolo[1,5-a][1,4]thiazin-4-yl)-4-fluorophenyl)-3,5-dichloropicolinamide] | 1 nM | 49%
CC1(C)C(N)=N[C@](C)(c2cc(NC(=O)c3ccc(C#N)cc3Cl)ccc2F)[C@@H]2CCN=[S@@]21=O [Example 4AB, N-(3-((3aS,4R,8R)-6-amino-4,7,7-trimethyl-8-oxido-3,3a,4,7-tetrahydro-2H-isothiazolo[1,5-a][1,4]thiazin-4-yl)-4-fluorophenyl)-2-chloro-4-cyanobenzamide] | 13.1 nM | 102%

Continued, in another order:

IC50 (BACE1) | Compound | response vs control in vivo at 30 mg/kg (Aβ40)
0.4 nM | CC1(C)C(N)=N[C@](C)(c2cc(NC(=O)c3cnc(OCC(F)F)cn3)ccc2F)[C@@H]2CCN=[S@@]21=O [Example 7AB, N-(3-((3aS,4R,8R)-6-amino-4,7,7-trimethyl-8-oxido-3,3a,4,7-tetrahydro-2H-isothiazolo[1,5-a][1,4]thiazin-4-yl)-4-fluorophenyl)-5-(2,2-difluoroethoxy)pyrazine-2-carboxamide] | 42%
0.3 nM | CC1(C)C(N)=N[C@](C)(c2cc(NC(=O)c3ncc(OC(F)F)cc3Cl)ccc2F)[C@@H]2CCN=[S@@]21=O [Example 13AB, N-(3-((3aS,4R,8R)-6-amino-4,7,7-trimethyl-8-oxido-3,3a,4,7-tetrahydro-2H-isothiazolo[1,5-a][1,4]thiazin-4-yl)-4-fluorophenyl)-3-chloro-5-(difluoromethoxy)picolinamide] | 39%
0.5 nM | COc1cnc(C(=O)Nc2ccc(F)c([C@@]3(C)N=C(N)C(C)(C)[S@@]4(=O)=NCC[C@@H]34)c2)cn1 [Example 14AB, N-(3-((3aS,4R,8R)-6-amino-4,7,7-trimethyl-8-oxido-3,3a,4,7-tetrahydro-2H-isothiazolo[1,5-a][1,4]thiazin-4-yl)-4-fluorophenyl)-5-methoxypyrazine-2-carboxamide] | 3%
0.2 nM | CC1(C)C(N)=N[C@](C)(c2cc(NC(=O)c3cnc(OC(F)F)cn3)ccc2F)[C@@H]2CCN=[S@@]21=O [Example 15AB, N-(3-((3aS,4R,8R)-6-amino-4,7,7-trimethyl-8-oxido-3,3a,4,7-tetrahydro-2H-isothiazolo[1,5-a][1,4]thiazin-4-yl)-4-fluorophenyl)-5-(difluoromethoxy)pyrazine-2-carboxamide] | 20%
